Measured values reported in ChEMBL document CHEMBL6182885, “Discovery, Biological Activity, and Biosynthesis of Pinocicolin A, an Antibiotic Isocyanide Metabolite Produced by Penicillium pinophilum” (J Nat Prod, 2025).

Experiments:
Staphylococcus aureus = test: Antibacterial activity against Staphylococcus aureus NBRC13276 incubated overnight by disc diffusion assay; type: functional
[1] = Metal chelating activity assessed as CAS-Cu complex formation in presence of CAS/CuCl2 by UV-Vis spectrophotometric analysis
[2] = tested on: Brevibacillus choshinensis; test: Antibacterial activity against Brevibacillus SP3 incubated overnight by disc diffusion assay; type: functional
Jonesia denitrificans = test: Antibacterial activity against Listeria denitrificans NBRC15587 incubated overnight by disc diffusion assay; type: functional
Escherichia coli = test: Antibacterial activity against Escherichia coli NEB10beta incubated overnight by disc diffusion assay; type: functional
Pseudomonas aeruginosa = test: Antibacterial activity against Pseudomonas aeruginosa NBRC12689 incubated overnight by disc diffusion assay; type: functional

Molecule `[C-]#[N+][C@H](C(=O)OC[C@@H](O)[C@@H](O)[C@H](O)[C@H](O)COC(=O)[C@@H]([N+]#[C-])C(C)C)C(C)C` has an MIC (Staphylococcus aureus) of 5 µg, an EC50 [1] of 8 µM and an MIC [2] of 5 µg. It also gave an MIC (Jonesia denitrificans) of 5 µg, an MIC (Escherichia coli) greater than 100 µg and an MIC (Pseudomonas aeruginosa) greater than 100 µg.

`CC(C)[C@H](NC=O)C(=O)OC[C@@H](O)[C@@H](O)[C@H](O)[C@H](O)COC(=O)[C@@H](NC=O)C(C)C` gave an MIC (Staphylococcus aureus) greater than 100 µg, an MIC [2] greater than 100 µg and an MIC (Jonesia denitrificans) greater than 100 µg. It also gave an MIC (Escherichia coli) greater than 100 µg and an MIC (Pseudomonas aeruginosa) greater than 100 µg.

Work on `[C-]#[N+][C@H](C(=O)OC[C@@H](O)[C@@H](O)[C@H](O)[C@H](O)COC(=O)[C@@H](NC=O)C(C)C)C(C)C` yielded an MIC (Staphylococcus aureus) greater than 100 µg, an EC50 [1] of 26.9 µM and an MIC [2] greater than 100 µg. The MIC (Jonesia denitrificans) was greater than 100 µg, the MIC (Escherichia coli) was greater than 100 µg and the MIC (Pseudomonas aeruginosa) was greater than 100 µg.
